PubChem BioAssay (NCI)
“And” between values parts separate entries of the source, which are not always exact repeats. Equal values may be shown once.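 48-hour exposure; five concentrations; linearly interpolated endpoints. GI50 marks 50% less growth. TGI denotes the concentration required for complete inhibition of growth.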

Columns and labels:
Assay in all cases: NCI-60 cell line screen, 48 h
CAKI-1 renal = tested on: CAKI-1 renal
KM20L2 colon = tested on: KM20L2 colon
M14 melanoma = tested on: M14 melanoma
MDA-MB-435 = tested on: MDA-MB-435
MDA-N = tested on: MDA-N
NCI-H226 lung = tested on: NCI-H226 lung
SF-539 CNS = tested on: SF-539 CNS
SNB-19 CNS = tested on: SNB-19 CNS
SNB-78 CNS = tested on: SNB-78 CNS
T-47D breast = tested on: T-47D breast
XF 498 CNS = tested on: XF 498 CNS

Structure (SMILES) | GI50 (CAKI-1 renal) | TGI (CAKI-1 renal) | TGI (KM20L2 colon) | GI50 (M14 melanoma) | TGI (M14 melanoma) | GI50 (MDA-MB-435) | TGI (MDA-MB-435) | GI50 (MDA-N) | TGI (MDA-N) | GI50 (NCI-H226 lung) | TGI (NCI-H226 lung) | GI50 (SF-539 CNS) | TGI (SF-539 CNS) | GI50 (SNB-19 CNS) | TGI (SNB-19 CNS) | TGI (SNB-78 CNS) | GI50 (T-47D breast) | TGI (T-47D breast) | GI50 (XF 498 CNS) | TGI (XF 498 CNS)
COc1cc(CNc2ccc(SC)cc2)cc(OC)c1OC | 22.5 µM and 11.1 µM | > 97.1 µM | 19.5 µM and 23.3 µM | 5.28 µM | > 47 µM and 37.9 µM | 1.67 µM and 0.638 µM | 80 µM | 3.35 µM and 1.05 µM | 7.15 µM | 26.4 µM and 11.9 µM | > 100 µM and 84.7 µM | 11.4 µM and 3.06 µM | 44.4 µM and 12.3 µM | 25.4 µM and 10.1 µM | > 100 µM | > 100 µM | 24.7 µM and 7.05 µM | > 100 µM and 69.8 µM | 23.4 µM and 11.1 µM | 91.2 µM and 40 µM
CC(=O)OC1CC2C(C)(C)OC(=O)CC(OC(C)=O)[C@]2(C)C2CCC3(C)C(=CCC3[C@H]3COC(=O)C3)[C@]12C (stereo partly specified) | – | > 100 µM | > 100 µM | – | > 100 µM | – | – | – | – | – | > 100 µM | – | > 100 µM | – | > 100 µM | > 100 µM | – | – | – | > 100 µM
CN1NC(=Nc2ccccc2)Sc2c1cnn(-c1ccccc1)c2=O | – | – | > 100 µM | – | > 100 µM | – | – | – | – | – | – | – | > 100 µM | – | > 100 µM | – | – | – | – | –
CC(C)C(=O)/C=C/c1ccc(Br)cc1 | – | – | 21.5 µM | – | 32.4 µM | – | – | – | – | – | – | – | 35.5 µM | – | 29.8 µM | > 100 µM | – | – | – | 30.4 µM
COC(=O)OCC1OC(N2C(=O)NC(=O)C(Br)C2N=[N+]=[N-])CC1OC(=O)OC (stereo unspecified) | – | > 100 µM | > 100 µM | – | > 100 µM | – | – | – | – | – | > 100 µM | – | > 100 µM | – | > 100 µM | > 100 µM | – | – | – | > 100 µM
O=C(Cc1ccccc1)NN1C(=O)C(Cl)C1c1ccc(O)cc1 (stereo unspecified) | – | > 100 µM | > 100 µM | – | > 100 µM | – | – | – | – | – | > 100 µM | – | – | – | > 100 µM | – | – | – | – | –
O=C1Nc2c(ccc(Cl)c2I)C1=O | – | 30.6 µM | > 100 µM | – | 29.4 µM | – | – | – | – | – | 46.4 µM | – | – | – | > 100 µM | – | – | – | – | 29.9 µM
O=C1c2ccccc2CCCCCCCCCCC12OCCCO2 | – | 95.7 µM | 71.7 µM | – | > 100 µM | – | – | – | – | – | 97.2 µM | – | > 100 µM | – | 77.5 µM | > 100 µM | – | – | – | –
CC(=O)C1=C(C)NC2C=CC=CN12 (stereo unspecified) | – | > 100 µM | > 100 µM | – | > 100 µM | – | – | – | – | – | > 100 µM | – | > 100 µM | – | > 100 µM | > 100 µM | – | – | – | > 100 µM
O=C1c2ccccc2C(=O)N1Cc1ccccc1-c1c2nc(c(-c3ccccc3CN3C(=O)c4ccccc4C3=O)c3ccc([nH]3)c(-c3ccccc3CN3C(=O)c4ccccc4C3=O)c3nc(c(-c4ccccc4CN4C(=O)c5ccccc5C4=O)c4ccc1[nH]4)C=C3)C=C2 | – | > 100 µM | > 100 µM | – | > 100 µM | – | – | – | – | – | > 100 µM | – | > 100 µM | – | – | > 100 µM | – | – | – | –
NC1=NS(=O)(=O)Nc2nc(-c3ccc(Cl)cc3)c(-c3ccc(Cl)cc3)nc21 | – | > 100 µM | – | – | > 100 µM | – | – | – | – | – | – | – | > 100 µM | – | > 100 µM | > 100 µM | – | – | – | > 100 µM
CCCCCCCCCCCCCCCCCC(=O)O[C@H](COC(=O)CCCCCCCCCCC)COC(=O)CCCCCCCCCCCCCCC | – | > 100 µM | > 100 µM | – | > 100 µM | – | – | – | – | – | > 100 µM | – | – | – | > 100 µM | – | – | – | – | –
COC(=O)N/N=C(\C)C(CN1CCCCC1)C(C1=C(O)c2ccccc2OC1)c1ccccc1 (stereo unspecified) | – | > 100 µM | > 100 µM | – | > 100 µM | – | – | – | – | – | > 100 µM | – | > 100 µM | – | > 100 µM | > 100 µM | – | – | – | > 100 µM
COc1cc(C)c2c(c1C)OC(=O)c1c(C)c(Cl)c(O)c(C=O)c1O2 | – | > 100 µM | 69.5 µM | – | 52 µM | – | – | – | – | – | 87.6 µM | – | 26.6 µM | – | > 100 µM | 50.6 µM | – | – | – | 49.5 µM
Cc1cc(C)[n+](CCOc2ccc(/C(=C(/Cl)c3ccccc3)c3ccccc3)cc2)c(C)c1 | – | 20.3 µM | 12.7 µM | – | 6.88 µM | – | – | – | – | – | 6.37 µM | – | 9.82 µM | – | 5.21 µM | 19.5 µM | – | – | – | 1.29 µM
O=C(CSc1nnc(Cc2ccccc2)o1)Nc1ccc([N+](=O)[O-])cc1 | – | – | > 100 µM | – | > 100 µM | – | – | – | – | – | > 100 µM | – | > 100 µM | – | – | > 100 µM | – | – | – | –
CCCC(C)NC1=C(NC(C)=O)C(=O)c2ccccc2C1=O (stereo unspecified) | – | – | > 100 µM | – | > 100 µM | – | – | – | – | – | > 100 µM | – | > 100 µM | – | > 100 µM | > 100 µM | – | – | – | > 100 µM
O=C1OC2(OC2c2ccccc2)c2ccccc21 (stereo unspecified) | – | – | > 100 µM | – | > 100 µM | – | – | – | – | – | > 100 µM | – | > 100 µM | – | > 100 µM | – | – | – | – | > 100 µM
O=c1c2ncn(COCCCl)c2n(-c2ccccc2)c(=S)n1-c1ccccc1 | – | > 100 µM | – | – | > 100 µM | – | > 100 µM | – | > 100 µM | – | > 100 µM | – | > 100 µM | – | > 100 µM | – | – | > 100 µM | – | –
Nc1cccc(Nc2nc3ccccc3nc2NS(=O)(=O)c2ccccc2)c1 | – | 80.3 µM | – | – | 71.8 µM | – | 62.4 µM | – | > 100 µM | – | > 100 µM | – | 45.3 µM | – | 62.2 µM | – | – | > 100 µM | – | –
Oc1cc(C2OCCCO2)cc(O)c1O | – | > 100 µM | > 100 µM | – | > 100 µM | – | – | – | – | – | > 100 µM | – | > 100 µM | – | > 100 µM | > 100 µM | – | – | – | –
Cc1cn(C(Cc2ccccc2)OCCO)c(=O)[nH]c1=O (stereo unspecified) | – | > 100 µM | – | – | > 100 µM | – | > 100 µM | – | > 100 µM | – | > 100 µM | – | > 100 µM | – | > 100 µM | – | – | > 100 µM | – | –
CC(=O)O[C@H]1C#C/C=C\C#CC[C@@H]2C(=O)N[C@@H]12 | – | > 40.1 µM | – | – | > 100 µM | – | > 100 µM | – | > 100 µM | – | 90.8 µM | – | 5.39 µM | – | > 100 µM | – | – | > 100 µM | – | –
CC(=O)Nc1cc2c(s1)CCC1CC(=O)NN=C21 (stereo unspecified) | – | – | > 100 µM | – | > 100 µM | – | – | – | – | – | > 100 µM | – | > 100 µM | – | > 100 µM | > 100 µM | – | – | – | > 100 µM
Cc1ccc([C@H]2CC(=O)C[C@H](c3ccc(C)cc3)C23C(=O)c2ccccc2C3=O)cc1 | – | > 100 µM | – | – | > 100 µM | – | > 100 µM | – | > 100 µM | – | > 100 µM | – | > 100 µM | – | 79.7 µM | – | – | > 100 µM | – | –
CC1=NN2C(=N)/C(=C/c3ccco3)C(=O)N=C2S1 | – | > 100 µM | – | – | > 100 µM | – | > 100 µM | – | > 100 µM | – | > 100 µM | – | > 100 µM | – | > 100 µM | – | – | > 100 µM | – | –
C=CCCC(=O)CC(O)(C(F)(F)F)C(F)(F)F | – | > 100 µM | – | – | > 100 µM | – | > 100 µM | – | > 100 µM | – | > 100 µM | – | > 100 µM | – | > 100 µM | – | – | > 100 µM | – | –
